From paper PMC11855478, “Bicyclic N,S-Acetals Containing Fused Cysteine-Amide System as New Heterocyclic Class Targeting Human Farnesyltransferase (FTase-h)” (International Journal of Molecular Sciences, 2025)
Like-named read-outs stand apart in the source and are kept apart here.

Legend:
[1] = target: human farnesyltransferase (FTase) (Homo sapiens, UniProt P49354+P49356); experiment: FTase inhibitory assay (fluorescence, Dansyl-GCVLS); format: biochemical; details: for % FTI: inhibition of human FTase at 100 μM of tested compound, mean of two experiments; for IC50: human FTase in vitro
Procedure: With 40 new products in hand, the determination of their inhibitory activity on human farnesyl-transferase (FTase) in vitro was first undertaken. Dimethyl sulfoxide (DMSO) was used as the negative control, and Chaetomellic acid A was the positive reference in all assays. At the outset, and in order to select only significant results, products with an inhibitory power greater than 60% at an initial screening concentration of 100 µM were retained for the determination of their IC50 and, therefore, for further discussion. Moreover, given the number of products tested, they are grouped into three subfamilies on the basis of the degree of the sulphur atom oxidation (series of sulfides, series of sulfoxides, and series of sulfones), and the results obtained are grouped in Table 1, Table 2 and Table 3.
3.3. FTase Inhibitory Assay
Assays were realized in 96-well plates, prepared with a Biomek NKMC and a Biomek 3000 from Beckman Coulter, and read on a Wallac Victor fluorimeter from PerkinElmer. Per well, 20 µL of farnesyl pyrophosphate (10 μM) was added to 180 µL of a solution containing 2 µL of varied concentrations of potential inhibitors (dissolved in DMSO) and 178 μL of a solution composed of 10 μL of partially purified recombinant human FTase (15 µg mL^−1) and 1.0 µL of Dansyl-GCVLS peptide (in the following buffer: 5.6 mM DTT, 5.6 mM MgCl2, 12 μM ZnCl2 and 0.2% (w/v) octyl-β-D-glucopyranoside, 52 mM Tris/HCl, pH 7.5). Fluorescence was recorded for 15 min (0.7 s per well, 20 repeats) at 30 °C with an excitation filter at 340 nm and an emission filter of 486 nm. Each measurement was reproduced twice, in duplicate. The kinetic experiments were realized under the same conditions, either with FPP as varied substrate with a constant concentration of Dns-GCVLS of 2.5 μM or with Dns-GCVLS as varied substrate with a constant concentration of FPP of 10 μM. Non-linear regressions were performed using the Excel software.

[2] = target: FTase; details: Figure 1, cited from earlier work

Row | Compound | % FTI [1] [%] | further results
1 | COc1ccccc1CNC(=O)[C@@H]1CS(=O)(=O)[C@H]2c3ccccc3C(=O)N12 [7aG] | 47 | –
2 | COc1cccc(CNC(=O)[C@@H]2CS(=O)(=O)[C@@]3(C)c4ccccc4C(=O)N23)c1 [7bE] | 53 | –
3 | C[C@]12c3ccccc3C(=O)N1[C@H](C(=O)NCc1ccccc1)CS2(=O)=O [7bA] | 41 | –
4 | COc1ccc(CNC(=O)[C@@H]2CS(=O)(=O)[C@@]3(C)c4ccccc4C(=O)N23)cc1 [7bF] | 44 | –
5 | COc1ccc(CNC(=O)[C@@H]2CS(=O)(=O)[C@H]3c4ccccc4C(=O)N23)cc1 [7aF] | 34 | –
6 | CCCCCCCCCCCCCC/C(C(=O)O)=C(\C)C(=O)O [Ref., Chaetomellic acid A, reference compound] | 100 | IC50 [1]: 183 nM
7 | COc1ccc(CNC(=O)[C@@H]2C[S+]([O-])[C@@]3(C)c4ccccc4C(=O)N23)cc1 (some centres unmarked) [5bF] | 68 | –
8 | O=C(NCc1ccccc1)[C@@H]1CS(=O)(=O)[C@H]2c3ccccc3C(=O)N12 [7aA] | 20 | –
9 | Cn1cncc1[C@@](N)(c1ccc(Cl)cc1)c1ccc2c(c1)c(-c1cccc(Cl)c1)cc(=O)n2C [Tipifarnib (R115777), Tipifarnib] | – | IC50 ([2]; known FTIs): 7.9 nM
10 | CS(=O)(=O)CC[C@H](NC(=O)c1cccc(CNC(=O)[C@@H](N)CS)c1)C(=O)O [C-AMBA-M] | – | IC50 ([2]; known FTIs): 60 nM
11 | COc1ccccc1CNC(=O)[C@@H]1CS(=O)(=O)[C@@]2(C)c3ccccc3C(=O)N12 [7bG] | 74 | IC50 [1]: 67.3 nM
12 | COc1ccccc1CNC(=O)[C@@H]1C[S+]([O-])[C@@]2(C)c3ccccc3C(=O)N12 (some centres unmarked) [5bG] | 87 | IC50 [1]: 4.03 nM
13 | COc1ccc(CNC(=O)[C@@H]2CS(=O)(=O)[C@@]3(C)c4ccccc4C(=O)N23)cc1OC [7bI] | 13 | –
14 | C[C@]12c3ccccc3C(=O)N1[C@H](C(=O)NCc1cccc(C(F)(F)F)c1)C[S+]2[O-] (some centres unmarked) [5bD] | 43 | –
15 | COc1ccc(CNC(=O)[C@@H]2C[S+]([O-])[C@@]3(C)c4ccccc4C(=O)N23)cc1OC (some centres unmarked) [5bI] | 0 | FTase inhibitory activity (in words) [1]: complete loss of inhibitory activity
16 | COC1=C(OC)[C@H](O)[C@H](C/C=C(\C)CC/C=C(\C)CCC=C(C)C)[C@@H](C)C1=O [Antroquinonol] | – | IC50 ([2]; known FTIs): 2990 nM
17 | O=C(NCc1cccc(C(F)(F)F)c1)[C@@H]1CS(=O)(=O)[C@H]2c3ccccc3C(=O)N12 [7aD] | 28 | –
18 | C[C@]12c3ccccc3C(=O)N1[C@H](C(=O)NCc1cccc(C(F)(F)F)c1)CS2(=O)=O [7bD] | 32 | –
19 | C[C@]12c3ccccc3C(=O)N1[C@H](C(=O)NCc1ccc(Cl)cc1Cl)C[S+]2[O-] (some centres unmarked) [5bH] | 31 | –
20 | COc1ccc(CNC(=O)C2CS(=O)(=O)C3c4ccccc4C(=O)N23)cc1OC (centres unmarked) [7aI] | 53 | –
21 | COc1cccc(CNC(=O)[C@@H]2C[S+]([O-])[C@@]3(C)c4ccccc4C(=O)N23)c1 (some centres unmarked) [5bE] | 62 | –
22 | CCCC[C@@H](C)/C=C(C)/C=C(\C)C(=O)NC1=C[C@@](O)(/C=C/C=C/C=C/C(=O)NC2=C(O)CCC2=O)[C@@H]2O[C@@H]2C1=O [Manumycin-A] | – | IC50 ([2]; known FTIs): 30 nM
23 | COc1cccc(CNC(=O)[C@@H]2CS(=O)(=O)[C@H]3c4ccccc4C(=O)N23)c1 [7aE] | 42 | –
24 | CC12c3ccccc3C(=O)N1C(C(=O)NCc1ccccc1)C[S+]2[O-] (centres unmarked) [5bA] | 30 | –
25 | C[C@]12c3ccccc3C(=O)N1[C@H](C(=O)NCc1ccc(Cl)cc1Cl)CS2(=O)=O [7bH] | 76 | FTase inhibitory activity (in words) [1]: false positive
26 | CN1C(=O)[C@]23CC4=CC=C[C@H](O)[C@H]4N2C(=O)[C@@]1(CO)SS3 [Gliotoxin] | – | IC50 ([2]; known FTI): 80000 nM; IC50 ([2]; known FTIs): 80 nM
